Measured values reported in patent US6787518B1, “Therapeutics of osteoarthritis and inflammatory joint disease” (priority 1995, dated 2004).

Experiments:
PTHrP receptors = biological target: T1, PTHrP receptors (Oryctolagus cuniculus, UniProt G1T397); assay: Binding of 125I labelled PTHrP to receptors in chondrocyte homogenate (DSS crosslinking, SDS gel electrophoresis, autoradiography); set-up: species or system rabbit; conditions: addition of excess PTHrP; chondrocytes cultured 14 days, homogenized; FIG. 1
T1 construct: the chondrocytes cultured for 14 days were homogenized and incubated with ^125I labelled PTHrP for 5 h; endogenous in cells; host or cells: primary rabbit growth-plate chondrocytes, 14-day pellet culture, homogenized
T1 sequence (G1T397 29-589): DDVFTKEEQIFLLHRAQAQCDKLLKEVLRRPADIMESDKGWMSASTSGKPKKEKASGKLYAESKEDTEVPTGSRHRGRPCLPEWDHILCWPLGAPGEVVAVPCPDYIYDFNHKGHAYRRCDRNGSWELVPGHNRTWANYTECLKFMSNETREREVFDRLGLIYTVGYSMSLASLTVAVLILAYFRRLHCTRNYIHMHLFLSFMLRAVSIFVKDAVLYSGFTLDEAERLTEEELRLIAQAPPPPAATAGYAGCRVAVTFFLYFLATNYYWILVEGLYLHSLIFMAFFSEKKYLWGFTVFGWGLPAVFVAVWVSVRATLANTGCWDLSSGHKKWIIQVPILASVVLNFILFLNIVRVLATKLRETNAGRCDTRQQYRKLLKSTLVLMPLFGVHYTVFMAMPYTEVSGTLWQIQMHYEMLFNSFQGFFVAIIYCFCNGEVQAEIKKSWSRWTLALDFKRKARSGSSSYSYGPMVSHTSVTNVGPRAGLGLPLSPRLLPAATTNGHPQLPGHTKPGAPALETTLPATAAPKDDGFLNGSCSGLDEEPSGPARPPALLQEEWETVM
Excerpt: (§1) In the following Examples, grown chondrocytes were separated from the subchondral bone to bone transition area of rabbits 4 weeks old from birth by the method of Shimomura et al. (Shimomura, Y. et al., Calcif. Tissue Res. 19, 179-187, 1975). The separated chondrocytes were cultivated by the method of Iwamoto et al. (Iwamoto, M. et al. Dev. Biol. 136 500-507, 1989) and the method of Kato et al. (Kato, Y. et al. Endocrinology, 127, 114-118, 1990). Stated specifically, the separated chondrocytes were suspended in an Eagle's minimum essential medium (MEM) to give a concentration of 8×10^4 cells/mL in the presence of 10% fetal bovine serum (FBS) and 50 μg/mL of ascorbic acid and then seeded in 1-mL portions into 15-mL plastic centrifugal tubes (Corning). After 5-min centrifugation (at 1,500 rpm), the cells were cultivated in a CO2 gas incubator having a temperature setting of 37° C. Starting on the 6th day of the cultivation, medium changes were made every other day. The presence of PTHrP receptors in the chondrocytes was verified by SDS gel electrophoresis. Stated specifically, the chondrocytes cultured for 14 days were homogenized and incubated with ^125I labelled PTHrP for 5 h. The PTHrP binding to the receptors was crosslinked with DSS, solubilized with a SDS buffer solution and electrophoresed through a SDS gel. […]

chondrocytes [1] = assay: Growth of chondrocytes cultured in a centrifugal tube (DNA content); format: cell-based, rabbit; conditions: 10^−7 M added on 8th day, up to 28 days; 10^−10 to 10^−7 M, 21st day; FIG. 3, 4
Excerpt: as §1, with “day.” for “day. The presence of PTHrP receptors in the chondrocytes was verified by SDS gel electrophoresis. Stated specifically, the chondrocytes cultured for 14 days were homogenized and incubated with ^125I labelled PTHrP for 5 h. The PTHrP binding to the receptors was crosslinked with DSS, solubilized with a SDS buffer solution and electrophoresed through a SDS gel.”
As in Example 1, chondrocytes were cultured in a centrifugal tube. […] After the cultivation, the cells were solubilized at appropriate intervals and the time-dependent changes in DNA content were measured. In another experiment, PTHrP was added at varying concentrations from 10^−10 to 10^−7 M and the DNA content on the 21st day of the cultivation was measured.

mRNA of type II collagen = assay: Expression of mRNA of type II collagen in cultured chondrocytes (hybridization with 32P cDNA probe); format: cell-based, rabbit; conditions: 10^−8 or 10^−7 M PTHrP, last 6 days of 30-day cultivation; FIG. 9
Experimental: (§2) As in Example 1, grown chondrocytes were separated from the subchondral bone to bone transition area of rabbits 4 weeks old from birth by the method of Shimomura et al. (Shimomura, Y. et a., Calcif. Tissue Res. 19, 179-187, 1975). The separated chondrocytes were suspended in an Eagle's minimum essential medium (MEM) containing 10% fetal bovine serum and 50 μg/mL of ascorbic acid and seeded on a 3.5-cm Petri dish coated with type I collagen, each well containing 5,000 cells. Following 30-day cultivation, 10^−8 and 10^−7 M of PTHrP was brought into action for the last 6 days. RNA was prepared from the cultured cells by the CsTFA method (Smale and Sasse, Anal. Biochem. 203, 352-356. 1992), separated by electrophoresis and thereafter transferred onto a membrane. The membrane onto which the RNA had been transferred was hybridized with a ^32P labelled cDNA probe for type X and II collagens.

chondrocytes [2] = assay: Alkaline phosphatase (ALP) activity of chondrocytes cultured in a centrifugal tube; format: cell-based, rabbit
Excerpt: (§3) In the following Examples, grown chondrocytes were separated from the subchondral bone to bone transition area of rabbits 4 weeks old from birth by the method of Shimomura et al. (Shimomura, Y. et al., Calcif. Tissue Res. 19, 179-187, 1975). The separated chondrocytes were cultivated by the method of Iwamoto et al. (Iwamoto, M. et al. Dev. Biol. 136 500-507, 1989) and the method of Kato et al. (Kato, Y. et al. Endocrinology, 127, 114-118, 1990). Stated specifically, the separated chondrocytes were suspended in an Eagle's minimum essential medium (MEM) to give a concentration of 8×10^4 cells/mL in the presence of 10% fetal bovine serum (FBS) and 50 μg/mL of ascorbic acid and then seeded in 1-mL portions into 15-mL plastic centrifugal tubes (Corning). After 5-min centrifugation (at 1,500 rpm), the cells were cultivated in a CO2 gas incubator having a temperature setting of 37° C. Starting on the 6th day of the cultivation, medium changes were made every other day. The presence of PTHrP receptors in the chondrocytes was verified by SDS gel electrophoresis. Stated specifically, the chondrocytes cultured for 14 days were homogenized and incubated with ^125I labelled PTHrP for 5 h. The PTHrP binding to the receptors was crosslinked with DSS, solubilized with a SDS buffer solution and electrophoresed through a SDS gel. After the electrophoresis, autoradiography was performed in the usual manner. As a control, excess PTHrP, was added to prevent the binding of ^125I labelled PTHrP to the receptors and the unbound PTHrP was electrophoresed by the same procedure and subjected to autoradiography.
As in Example 1, chondrocytes were cultured in a centrifugal tube. On the 8th day of the cultivation, 10^−7 M of PTHrP was added and the cultivation was continued for a period of up to 28 days. On the 21st day of the cultivation, a PTHrP free group was set and compared with the PTHrP treated group. In another experiment, PTHrP was added in varying amounts from […] and the dose-response relationship with the alkaline phosphatase activity (ALP activity) was verified. For the measurement of ALP activity, chondrocyte clusters were homogenized in 0.2% Triton X-100, centrifuged at 12,000 xg for 15 min and the supernatant was assayed by the method of Bessey et al. (Bessey O. A. et al., J. Biol. Chem. 164, 321-329, 1946). To investigate the progress of calcification, 0.5 μCi of ^45Ca was added at suitable intervals and its incorporation into the chondrocytes after 24 h, as well as the Ca level on the 28th day of the cultivation were measured.

chondrocytes [3] = assay: Calcification of chondrocytes (45Ca incorporation, Ca level) in centrifugal tube culture; format: cell-based, rabbit
Excerpt: as §3
As in Example 1, chondrocytes were cultured in a centrifugal tube. On the 8th day of the cultivation, 10^−7 M of PTHrP was added and the cultivation was continued for a period of up to 28 days. […] To investigate the progress of calcification, 0.5 μCi of ^45Ca was added at suitable intervals and its incorporation into the chondrocytes after 24 h, as well as the Ca level on the 28th day of the cultivation were measured.

grown chondrocytes = assay: Cartilage matrix proteoglycan synthesis (incorporation of labelled sulfuric acid) in cultured chondrocytes; format: cell-based, rabbit; conditions: FIG. 2
Experimental: As in Example 1, grown chondrocytes were separated from the subchondral bone to bone transition area of rabbits 4 weeks old from birth by the method of Shimomura et al. (Shimomura, Y. et al., Calcif. Tissue Res. 19, 179-187, 1975). The separated chondrocytes were suspended in an Eagle's minimum essential medium (MEM) containing 10% fetal bovine serum and 50 μg/mL of ascorbic acid and seeded in a 96-well culture plate at a concentration of 5,000 cells in each well. When the cells became confluent, PTHrP was added and, one day later, 1 μCi of […] was added per well, followed by 17-h cultivation. The amount of cartilage matrix produced in the supernatant of the culture solution was measured by the method of Kato et al. (Kato, Y. et al., Endocrinology 122, 1991-1997, 1988). Briefly, the quantity of […] incorporated into proteoglycans was measured.

mRNA of type X collagen = assay: Expression of mRNA of type X collagen in cultured chondrocytes (hybridization with 32P cDNA probe); format: cell-based, rabbit; conditions: 10^−8 and 10^−7 M PTHrP, last 6 days of 30-day cultivation; FIG. 9
Experimental: as §2

binding of 125I labelled PTHrP to the receptors (PTHrP receptors): completely prevented
ALP activity of the chondrocytes (chondrocytes [2]; 10^−7 M PTHrP added on 8th day, up to 28 days, PTHrP Treated Group, FIG. 5): suppressed
ALP activity (chondrocytes [2]; 10^−8 M PTHrP, FIG. 6): suppressed almost completely
concentration at which PTHrP started to suppress the ALP activity (chondrocytes [2]; dose response, 21st day, FIG. 6): above 10^−9 M
Substance: PTHrP: human 1-34PTHrP purchased from the Peptide Institute, Inc.; partial peptide of PTHrP, 34 amino acids from the N terminus
DNA content of the chondrocytes (chondrocytes [1]): not influenced at all
expression of the mRNA of type II collagen (mRNA of type II collagen): no effects
ALP activity after PTHrP was eliminated from the culture solution (chondrocytes [2]; PTHrP removed on 21st day of cultivation, PTHrP Free Group, FIG. 5): restored to the level of the control group
incorporation of 45Ca into the chondrocytes (chondrocytes [3]; 10^−7 M PTHrP, PTHrP Treated Group, FIG. 7): suppressed
effect on 45Ca incorporation when PTHrP was removed (chondrocytes [3]; PTHrP Free Group, FIG. 7): soon disappeared
calcification of chondrocytes (chondrocytes [3]; concentrations higher than 10^−8 M PTHrP, FIG. 8): completely suppressed
matrix synthesizing capability relative to control (incorporation of 35S-sulfuric acid into proteoglycans) (grown chondrocytes; 10^−6 M PTHrP): about 3 times
incorporation of 35S-sulfuric acid into proteoglycans (grown chondrocytes; 10^−10 to 10^−6 M PTHrP, dose response): accelerated the incorporation of ^35S-sulfuric acid into proteoglycans in a dose-dependent manner
expression of the mRNA of type X collagen (mRNA of type X collagen): significantly inhibited
